One test relates to A549 cells. The test is described as follows: Proliferation Assay (A549 viability, Cell Titer Fluor, 72 hours). It counts as cell-based. Particulars: Homo sapiens, read-out: EC50 against A549 cell proliferation. As to the method:
A549 cells were routinely maintained in RPMI 1640 media (Gibco catalog number 11875-093) supplemented with 10% dialyzed fetal bovine serum using a humidified incubator (37° C., 5% CO2 and ambient O2). In preparation for the viability assay, cells were inoculated into 384-well black CulturPlates (Perkin Elmer) at a density of 1000 cells/well in a volume of 40 μl. Following a 24-hour incubation at 37° C., 5% CO2 and ambient 02, cells were treated with compound (10 μl) in a final DMSO concentration of 0.5% (v/v). The microplates were then incubated for 72 hours (37° C., 5% CO2 and ambient O2). Cell Titer Fluor (Promega) was subsequently added (10 μl of 6× reagent) and mixed for 15 minutes at room temperature. The plates were then incubated for 30 minutes (37° C., 5% CO2 and ambient O2) and fluorescence was subsequently read on the Perkin Elmer Envision plate reader. EC50 values were calculated using a four-parameter logistic curve fit.

Test [1] concerns the target T1, GLS1 (purified recombinant human GAC) (Homo sapiens, UniProt O94925).
T1 sequence (O94925 55-598 isoform O94925-3 limits assumed): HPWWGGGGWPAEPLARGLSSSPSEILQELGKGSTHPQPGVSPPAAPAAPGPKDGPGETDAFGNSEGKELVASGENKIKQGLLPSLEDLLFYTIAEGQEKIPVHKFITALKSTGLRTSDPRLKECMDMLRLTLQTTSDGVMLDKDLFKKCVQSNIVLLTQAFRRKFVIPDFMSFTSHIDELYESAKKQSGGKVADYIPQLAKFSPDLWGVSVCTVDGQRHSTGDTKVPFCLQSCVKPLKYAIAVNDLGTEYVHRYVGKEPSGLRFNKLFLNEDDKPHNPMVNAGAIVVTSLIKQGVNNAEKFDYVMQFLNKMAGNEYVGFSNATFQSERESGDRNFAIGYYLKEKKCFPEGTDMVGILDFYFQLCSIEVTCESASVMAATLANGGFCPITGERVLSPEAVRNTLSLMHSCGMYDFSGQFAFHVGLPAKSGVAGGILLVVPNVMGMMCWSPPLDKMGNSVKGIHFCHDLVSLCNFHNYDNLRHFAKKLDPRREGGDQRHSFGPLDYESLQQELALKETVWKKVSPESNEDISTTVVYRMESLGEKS
The test is described as follows: GLS1 Enzymatic Activity Assay (dual-coupled enzymatic assay). Type of test: biochemical. The following applies: 50 mM potassium phosphate, 1 mM glutamine, read-out: IC50 against GLS1. The procedure: GLS1 Enzymatic Activity Assay
The inhibition of purified recombinant human GAC by varying concentrations of inhibitors is assessed via a dual-coupled enzymatic assay. The glutamate produced by the glutaminase reaction is used by glutamate oxidase to produce α-ketoglutarate, ammonia, and hydrogen peroxide, with this hydrogen peroxide subsequently being used by horseradish peroxidase to produce resorufin in the presence of Amplex UltraRed. The assay buffer consisted of 50 mM HEPES (pH 7.4), 0.25 mM EDTA and 0.1 mM Triton X-100. GAC was incubated with potassium phosphate (10 minutes at room temperature) prior to incubation with inhibitor (10 minutes at room temperature). The final reaction conditions were as follows: 2 nM GAC, 50 mM potassium phosphate, 100 mU/ml glutamate oxidase (Sigma), 1 mM glutamine (Sigma), 100 mU/ml horseradish peroxidase (Sigma), 75 μM Amplex UltraRed (Life Technologies), and 1% (v/v) DMSO. The production of resorufin was monitored on a Perkin Elmer Envision plate reader (excitation 530 nm, emission 590 nm) either in a kinetics or endpoint mode (at 20 minutes). IC50 values were calculated using a four-parameter logistic curve fit.

A value given as a limit tells only on which side of the number the result lay.

As to `CNC(=O)c1cn(C2CCN(c3ccc(NC(=O)Cc4cccc(OC(F)(F)F)c4)nn3)C2)nn1` (centres unmarked) [Example 6, N-Methyl-1-(1-(6-(2-(3-(trifluoromethoxy)phenyl)acetamido)pyridazin-3-yl)pyrrolidin-3-yl)-1H-1,2,3-triazole-4-carboxamide], the EC50 in the test with A549 cells is 500 to 5000 nM. In test [1], the concentration for half-maximal inhibition (IC50) fell in the range of 100 to 500 nM.

Take `CC(=O)Nc1cn(C2CCN(c3ccc(NC(=O)Cc4cccc(OC(F)(F)F)c4)nn3)C2)nn1` (centres unmarked) [Example 11, N-(6-(3-(4-acetamido-1H-1,2,3-triazol-1-yl)pyrrolidin-1-yl)pyridazin-3-yl)-2-(3-(trifluoromethoxy)phenyl)acetamide]: the EC50 with A549 cells was 500 to 5000 nM. For the same compound, the IC50 in test [1] was 100 to 500 nM.

Regarding `Nc1nnc(C2CCCN(c3nnc(NC(=O)Cc4cccc(OC(F)(F)F)c4)s3)C2)s1` (centres unmarked) [Example 16, N-(5-(3-(5-amino-1,3,4-thiadiazol-2-yl)piperidin-1-yl)-1,3,4-thiadiazol-2-yl)-2-(3-(trifluoromethoxy)phenyl)acetamide], in the test on A549 cells, the EC50 was in the range of 500 to 5000 nM. For the same compound, the concentration for half-maximal inhibition (IC50) in test [1] was in the range of 100 to 500 nM.

`O=C(Cc1cccc(OC(F)(F)F)c1)Nc1ccc(N2CCCC(n3cc(C(=O)NCc4ccccn4)nn3)C2)nn1` (centres unmarked) [Example 7, N-(Pyridin-2-ylmethyl)-1-(1-(6-(2-(3-(trifluoromethoxy)phenyl)acetamido)pyridazin-3-yl)piperidin-3-yl)-1H-1,2,3-triazole-4-carboxamide]: the EC50 in the test with A549 cells was in the range of 500 to 5000 nM. Also, the IC50 in test [1] is 100 to 500 nM.

For the compound `O=C(Cc1cccc(OC(F)(F)F)c1)Nc1ccc(N2CCCC(c3nnc(NC(=O)Cc4ccccc4F)s3)C2)nn1` (centres unmarked) [Example 23, 2-(2-fluorophenyl)-N-(5-(1-(6-(2-(3-(trifluoromethoxy)phenyl)acetamido)pyridazin-3-yl)piperidin-3-yl)-1,3,4-thiadiazol-2-yl)acetamide], in the test with A549 cells, the EC50 lay within 100 to 500 nM. Besides, the IC50 in test [1] is under 100 nM.

For the compound `Cn1cc(CC(=O)Nc2nnc(C3CCN(c4ccc(NC(=O)Cc5cccc(OC(F)(F)F)c5)nn4)C3)s2)cn1` (centres unmarked) [Example 18, 2-(1-methyl-1H-pyrazol-4-yl)-N-(5-(1-(6-(2-(3-(trifluoromethoxy)phenyl)acetamido)pyridazin-3-yl)pyrrolidin-3-yl)-1,3,4-thiadiazol-2-yl)acetamide 2,2,2-trifluoroacetate], the EC50 in the test with A549 cells lay within 100 to 500 nM. Moreover, the IC50 in test [1] is under 100 nM.

On to `Cc1cccc(CNC(=O)c2nnc(N3CCC(c4ccc(NC(=O)Cc5cc(OC6CC(F)(F)C6)cc(C)n5)nn4)C3)s2)n1` (centres unmarked) [Example 53, 5-(3-(6-(2-(4-(3,3-difluorocyclobutoxy)-6-methylpyridin-2-yl)acetamido)pyridazin-3-yl)pyrrolidin-1-yl)-N-((6-methylpyridin-2-yl)methyl)-1,3,4-thiadiazole-2-carboxamide], for which the EC50 in the test on A549 cells was under 100 nM. Further, the IC50 in test [1] was under 100 nM.

In the case of `Nc1nnc(C2CCN(c3ccc(NC(=O)Cc4cccc(OC(F)(F)F)c4)nn3)C2)s1` (centres unmarked) [Example 19, N-(6-(3-(5-amino-1,3,4-thiadiazol-2-yl)pyrrolidin-1-yl)pyridazin-3-yl)-2-(3-(trifluoromethoxy)phenyl)acetamide], in the test on A549 cells, the EC50 was in the range of 500 to 5000 nM. In test [1], the half-maximal inhibitory concentration (IC50) lay in the range of 100 to 500 nM.

`O=C(Cc1cccc(OC(F)(F)F)c1)Nc1ccc(N2CCCC(c3nnc(NC(=O)Cc4ccccn4)s3)C2)nn1` (centres unmarked) [Example 14, 2-(pyridin-2-yl)-N-(5-(1-(6-(2-(3-(trifluoromethoxy)phenyl)acetamido)pyridazin-3-yl)piperidin-3-yl)-1,3,4-thiadiazol-2-yl)acetamide]: the EC50 with A549 cells was under 100 nM. Also, the IC50 in test [1] was under 100 nM.

In the case of `O=C(Cc1ccccn1)Nc1ccc(C2CCN(c3nnc(C(=O)NCc4cc(C(F)(F)F)ccn4)s3)C2)nn1` (centres unmarked) [Example 38, 5-(3-(6-(2-(pyridin-2-yl)acetamido)pyridazin-3-yl)pyrrolidin-1-yl)-N-((4-(trifluoromethyl)pyridin-2-yl)methyl)-1,3,4-thiadiazole-2-carboxamide], the EC50 in the test on A549 cells is under 100 nM. Besides, in test [1], the IC50 is under 100 nM.

As to `CC(=O)Nc1nnc(C2CCCN(c3ccc(NC(=O)Cc4ccccc4)nn3)C2)s1` (centres unmarked) [Example 4, N-(6-(3-(5-Acetamido-1,3,4-thiadiazol-2-yl)piperidin-1-yl)pyridazin-3-yl)-2-phenylacetamide], in the test on A549 cells, the EC50 lay in the range of 500 to 5000 nM. In addition, the IC50 in test [1] lay in the range of 100 to 500 nM.

With `O=C(Cc1ccccn1)Nc1ccc(C2CCN(c3nnc(C(=O)NCc4cccc(OC(F)(F)F)c4)s3)C2)nn1` (centres unmarked) [Example 43, 5-(3-(6-(2-(pyridin-2-yl)acetamido)pyridazin-3-yl)pyrrolidin-1-yl)-N-(3-(trifluoromethoxy)benzyl)-1,3,4-thiadiazole-2-carboxamide], in the test with A549 cells, the EC50 was under 100 nM. The IC50 in test [1] was under 100 nM.

`CC(=O)Nc1nnc(C2CCN(c3ccc(NC(=O)Cc4cccc(OC(F)(F)F)c4)nn3)C2)s1` (centres unmarked) [Example 29, N-(6-(3-(5-acetamido-1,3,4-thiadiazol-2-yl)pyrrolidin-1-yl)pyridazin-3-yl)-2-(3-(trifluoromethoxy)phenyl)acetamide]: the EC50 with A549 cells was in the range of 100 to 500 nM. Also, the half-maximal inhibitory concentration (IC50) in test [1] was under 100 nM.

For `O=C(Cc1cccc(OC(F)(F)F)c1)Nc1ccc(N2CCC(c3nnc(NC(=O)Cc4ccc(F)cc4F)s3)C2)nn1` (centres unmarked) [Example 33, 2-(2,4-difluorophenyl)-N-(5-(1-(6-(2-(3-(trifluoromethoxy)phenyl)acetamido)pyridazin-3-yl)pyrrolidin-3-yl)-1,3,4-thiadiazol-2-yl)acetamide], in the test with A549 cells, the EC50 is 100 to 500 nM. Besides, the IC50 in test [1] was under 100 nM.

For `O=C(Cc1ccccn1)Nc1ccc(N2CCC(c3nnc(NC(=O)Cc4cccc(OC(F)(F)F)c4)s3)C2)nn1` (centres unmarked) [Example 42, 2-(pyridin-2-yl)-N-(6-(3-(5-(2-(3-(trifluoromethoxy)phenyl)acetamido)-1,3,4-thiadiazol-2-yl)pyrrolidin-1-yl)pyridazin-3-yl)acetamide], the EC50 with A549 cells lay within 100 to 500 nM. Further, the IC50 in test [1] is under 100 nM.

Turning to `Cc1cccc(CNC(=O)c2nnc(N3CCC(c4ccc(NC(=O)Cc5cccc(C)n5)nn4)C3)s2)n1` (centres unmarked) [Example 50, 5-(3-(6-(2-(6-methylpyridin-2-yl)acetamido)pyridazin-3-yl)pyrrolidin-1-yl)-N-((6-methylpyridin-2-yl)methyl)-1,3,4-thiadiazole-2-carboxamide], the EC50 in the test on A549 cells is under 100 nM. Besides, the IC50 in test [1] is under 100 nM.

For the compound `O=C(Cc1cccc(OC(F)(F)F)c1)Nc1ccc(C2CCN(c3nnc(C(=O)NCc4ccccn4)s3)C2)nn1` (centres unmarked) [Example 22, N-(pyridin-2-ylmethyl)-5-(3-(6-(2-(3-(trifluoromethoxy)phenyl)acetamido)pyridazin-3-yl)pyrrolidin-1-yl)-1,3,4-thiadiazole-2-carboxamide], in the test on A549 cells, the EC50 was under 100 nM. For the same compound, the IC50 in test [1] was under 100 nM.

For the compound `O=C(Cc1ccccn1)Nc1ccc([C@@H]2CCN(c3nnc(C(=O)NCc4cc(C(F)(F)F)ccn4)s3)C2)nn1` [Example 44, (R)-5-(3-(6-(2-(pyridin-2-yl)acetamido)pyridazin-3-yl)pyrrolidin-1-yl)-N-((4-(trifluoromethyl)pyridin-2-yl)methyl)-1,3,4-thiadiazole-2-carboxamide], in the test with A549 cells, the EC50 was under 100 nM. For the same compound, the 50% inhibitory concentration (IC50) in test [1] is under 100 nM.

As to `Cn1cc(CC(=O)Nc2nnc(C3CCCN(c4ccc(NC(=O)Cc5cccc(OC(F)(F)F)c5)nn4)C3)s2)cn1` (centres unmarked) [Example 24, 2-(1-Methyl-1H-pyrazol-4-yl)-N-(5-(1-(6-(2-(3-(trifluoromethoxy)phenyl)acetamido)pyridazin-3-yl)piperidin-3-yl)-1,3,4-thiadiazol-2-yl)acetamide], the EC50 in the test on A549 cells lay in the range of 500 to 5000 nM. Moreover, in test [1], the half-inhibitory concentration (IC50) is under 100 nM.

For the origin of these results see patent US10738043B2, “GLS1 inhibitors for treating disease” (Board of Regents, The University of Texas System, priority 2015, dated 2020).
